According to US20250171821A1, “HIF-1 ACTIVATORS AND USES THEREOF” (Ramot at Tel-Aviv University Ltd., priority 2022, published 2025):
“Also recorded” adds a separate entry of the source.

Assays:
MG-63 cells [1] = assay: Alizarin Red S staining of mineralization in MG-63 cells; type: cell-based, human
Method: (§1) The cultivation of MG-63 was performed in α-MEM growth medium (Sartorius). Osteogenic differentiation was performed by plating 20,000 cells/well into a sterile 24-well plate. Cells were left to adhere for 1 day and then switched to the osteogenic medium consisting of a minimum essential medium alpha (α-MEM) supplemented with 10% heat-inactivated FBS, 2 mM L-glutamine, 100 U/mL penicillin, 100 μg/mL streptomycin, 50 μM ascorbate-2-phosphate, and 10 mM β-glycerophosphate. Medium was changed every 2-3 days together with peptide supplementation. Seven to twenty-eight days after induction of differentiation, the production of extracellular calcified mineral matrix was visualized by Alizarin Red staining (Sigma) and Picrosirius Red (Scytek).
To visualize calcium deposition upon osteogenic differentiation, an Alizarin-red-S (Sigma) stock solution of 40 mM was used. Cells were washed three times with PBS and fixed in 1 mL of 4% PFA for 20 minutes at room temperature (RT). After fixation, cells were rinsed with double distilled water (DDW) and stained for 10 minutes in 1 mL Alizarin-red-S stock solution under continuous rotation. To diminish unspecific staining, cells were washed extensively three times with PBS. Stained samples were stored at 4° C. covered with PBS. […]

MG-63 cells [2] = assay: Picrosirius red staining of collagen fibers in MG-63 cells; type: cell-based, human; settings: 7 days, osteogenic differentiation medium plus peptide
Method: as §1
To visualize the extent of ECM formation, Picrosirius red dye was used to stain Collagen-I and Collagen-III. Treated cells were fixed with 4% PFA, washed with PBS and dried at 37° C. or at room temperature (RT) for overnight incubation. Then, the cells were stained with 400 μL of Sirius Red dye (0.1% in saturated picric acid) for 1 hour with mild shaking. The stained cell layers were then extensively washed with 0.01 N HCl to remove all non-bounded dye. After rinsing, photographs were taken under confocal microscope using polarized light.
Evaluation of Collagen fibers in MG-63 cells upon Def16-EPAS1 treatment—To evaluate the variation in Collagen fiber levels between normal MG-63 cells and MG-63 cells treated with the Def16-EPAS1 peptide, cells were supplemented to a 7-day incubation period with osteogenic differentiation medium (which includes 50 μg/mL ascorbic acid and 10 mM β-glycerophosphate), along with the addition of Def16-EPAS1 peptide. Collagen fibers were highlighted/stained by Picro-Sirius Red staining according to the manufacturer's instructions (FIG. 12). The PSR staining allows to clearly distinguish between Collagen-I and III fibers in cell culture. In the evaluation of polarizing colors of collagens fibers, Collagen-I and III were polarized with 488 nm and 647 nm wavelength, respectively, and visualized with the confocal microscope.

Bovine Dermal Fibroblast = assay: Collagen-I immunofluorescence in bovine dermal fibroblasts; type: cell-based; settings: 48 hours
Method: For microscopy images, cells were cultured in a 24-well plate and incubated with medium supplemented with the indicated concentrations of the treating entity (e.g., peptides or DFO) at 37° C. under 5% CO2. Cells were then washed additional three times with cold phosphate-buffered saline (PBS), following a 20 minute fixation in a 4% paraformaldehyde (PFA) in PBS and extensively washed three times with PBS to remove the PFA, followed by a 20 minute wash with blocking and penetration solution (PBS with 0.1% Triton X-100 and 2% BSA). Fixed cells were incubated with antibodies for 1 hour at 25° C., washed, and developed together with fluorescence-tagged secondary antibodies (Alexa 488 and 647, Abcam). Cell nuclei were stained with 1 mg/mL 4′,6-diamidino-2-phenylindole (DAPI Staining Solution ab228549, Abcam). Images were taken using a ZEISS LSM 900 in confocal mode, using Zen 3.1. Fluorescence readouts were obtained at ex/em of 358/461, 495/519 nm, and 652/668 nm for blue, green, and red, respectively.
Effect of Def16-EPAS1 on Collagen accumulation in Bovine Dermal Fibroblast—To test HIF mimicking peptide and its effect on Collagen accumulation in additional mammalian cells, the present inventors have examined the effect of the Def16-EPAS1 peptide on Bovine Dermal Fibroblast. […]

ischemic anastomoses = settings: cited from earlier work
mice = settings: after dextran sulfate sodium-induced intestinal fibrosis; cited from earlier work

Molecule | deposition of calcium (mineralized nodules) (MG-63 cells [1]; 5 μM or 20 μM peptide, 7 days, osteogenic differentiation medium) | mineralizing matrix formation (Alizarin Red S and Picrosirius Red) (MG-63 cells [1]; 10 μM peptide, 7, 14, 21 and 28 days, differentiation medium) | Collagen-I fibers (MG-63 cells [2]) | Collagen-III fibers (MG-63 cells [2]) | Collagen-I fibers (MG-63 cells [2]; listed as DEF16-EPAS1) | Collagen-III fibers (MG-63 cells [2]; listed as DEF16-EPAS1) | Collagen fibril morphology (Bovine Dermal Fibroblast; higher peptide concentrations) | Collagen-I levels compared to baseline of nontreated cells (Bovine Dermal Fibroblast; peptide concentration above 10 μM) | levels of collagen (ischemic anastomoses) | collagen deposition (mice)
Def16-EPAS1: GRCRGFRRRCFCTTHCELDLETLAPYIPMDGEDFQL (SEQ ID NO: 3): Def16 cell penetrating sequence fused to the EPAS1 peptide (Def16-EPAS1; MOD_RES 1 Can be FITC-labeled; MOD_RES 3 Can be FITC-labeled; MOD_RES 10 Can be FITC-labeled; MOD_RES 12 Can be FITC-labeled; MOD_RES 16..17 Can be FITC-labeled; MOD_RES 19 Can be FITC-labeled; MOD_RES 21 Can be FITC-labeled; MOD_RES 30 Can be FITC-labeled; MOD_RES 32..33 Can be FITC-labeled; MOD_RES 36 Can be FITC-labeled) | strong induction of deposition of calcium; also recorded: Typical mineralized nodules were observed | form a mineralizing matrix | over-production | over-production | enhanced levels | enhanced levels | thick fibril bundles of Collagen were observed | more than 2 fold | – | –
COC(=O)CNC(=O)C(=O)OC [DMOG] | – | – | – | – | – | – | – | – | increased levels of collagen | significant decrease in collagen deposition
